Results on 20 molecules are retold here after PubChem BioAssay AID330 (DTP/NCI, 2004).

This assay relates to P388 leukemia ip, CD2F1 mice, survival T/C. As to the kind of experiment: NCI In Vivo Anticancer Drug Screen. Data for tumor model P388 Leukemia (intraperitoneal) in CD2F1 (CDF1) mice. Conditions: endpoint: median survival time, higher = longer survival. Summed up: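 Mice carrying the transplanted tumor received test compound or vehicle. Survival was recorded in each group, and the value is the treated-group measurement divided by that of the vehicle-treated control group.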

[1] abbreviates: dose: 50.0 mg/kg/injection, schedule: Q01DX005 (ip), vehicle: saline.
[2] abbreviates: dose: 6.25 mg/kg/injection, schedule: Q01DX009 (ip), vehicle: saline with Tween-80.
Where [3] appears, read: dose: 12.5 mg/kg/injection, schedule: Q01DX009 (ip), vehicle: saline with Tween-80.
The mark [4] stands for this setting: dose: 25.0 mg/kg/injection, schedule: Q01DX009 (ip), vehicle: saline with Tween-80.
The mark [5] stands for this setting: dose: 25.0 mg/kg/injection, schedule: Q01DX005 (ip), vehicle: Klucel (hydroxypropylcellulose) (HPC).
The mark [6] stands for this setting: dose: 50.0 mg/kg/injection, schedule: Q01DX005 (ip), vehicle: Klucel (hydroxypropylcellulose) (HPC).
[7] abbreviates: dose: 50.0 mg/kg/injection, schedule: Q01DX009 (ip), vehicle: saline.
[8] abbreviates: dose: 100.0 mg/kg/injection, schedule: Q01DX009 (ip), vehicle: saline.
The mark [9] stands for this setting: dose: 200.0 mg/kg/injection, schedule: Q01DX009 (ip), vehicle: saline.
The mark [10] stands for this setting: dose: 100.0 mg/kg/injection, schedule: Q01DX005 (ip), vehicle: Klucel (hydroxypropylcellulose) (HPC).
The mark [11] stands for this setting: dose: 50.0 mg/kg/injection, schedule: Q01DX005 (ip), vehicle: saline with Tween-80.
The mark [12] stands for this setting: dose: 100.0 mg/kg/injection, schedule: Q01DX005 (ip), vehicle: saline with Tween-80.
Where [13] appears, read: dose: 200.0 mg/kg/injection, schedule: Q01DX005 (ip), vehicle: saline with Tween-80.

Where “and” joins values, the source holds several entries; their conditions need not be identical. Equal values may be shown once. Inconclusive results and toxic doses are left out.

As for `CCC(CC)C(=O)NC(=O)NC(N)=O`, the T/C by setting is: (dose: 60.0 mg/kg/injection, schedule: Q01DX005 (ip), vehicle: saline with Tween-80) 97 % of control; (dose: 120.0 mg/kg/injection, schedule: Q01DX005 (ip), vehicle: saline with Tween-80) 97 % of control; (dose: 240.0 mg/kg/injection, schedule: Q01DX005 (ip), vehicle: saline with Tween-80) 112 % of control.

On to `CC1=CC(C)(C)N=C(N)N1`, for which the T/C (dose: 12.5 mg/kg/injection, schedule: Q01DX005 (ip), vehicle: saline) was 98 % of control; the T/C (dose: 25.0 mg/kg/injection, schedule: Q01DX005 (ip), vehicle: saline) was 97 % of control; the T/C under setting [1] was 105 % of control and 91 % of control.

As to `O=C(CCCN1CCC(C(=O)c2ccc(F)cc2)CC1)c1ccc(F)cc1`, the T/C (dose: 1.56 mg/kg/injection, schedule: Q01DX009 (ip), vehicle: saline) is 92 % of control; the T/C (dose: 3.13 mg/kg/injection, schedule: Q01DX009 (ip), vehicle: saline) is 93 % of control; the T/C under setting [2] was 100 % of control; the T/C (dose: 6.25 mg/kg/injection, schedule: Q01DX009 (ip), vehicle: saline) was 104 % of control; the T/C under setting [3] is 100 % of control; the T/C under setting [4] was 110 % of control. Further, the T/C (dose: 50.0 mg/kg/injection, schedule: Q01DX009 (ip), vehicle: saline with Tween-80) was 118 % of control.

On to `CNc1[nH]c(=O)[nH]c(=O)c1[N+](=O)[O-]`, for which the T/C is, setting by setting: (dose: 12.5 mg/kg/injection, schedule: Q01DX005 (ip), vehicle: Klucel (hydroxypropylcellulose) (HPC)) 100 % of control; under setting [5], 105 % of control; under setting [6], 105 % of control and 112 % of control.

With `CCOC1(C)OC2OC(COC(c3ccccc3)(c3ccccc3)c3ccccc3)C(O)C(O)C2O1` (stereo not drawn), the T/C reads like this: (dose: 12.5 mg/kg/injection, schedule: Q01DX009 (ip), vehicle: other) 97 % of control; (dose: 25.0 mg/kg/injection, schedule: Q01DX009 (ip), vehicle: other) 97 % of control; (dose: 50.0 mg/kg/injection, schedule: Q01DX009 (ip), vehicle: other) 95 % of control; (dose: 100.0 mg/kg/injection, schedule: Q01DX009 (ip), vehicle: other) 98 % of control; (dose: 200.0 mg/kg/injection, schedule: Q01DX009 (ip), vehicle: other) 98 % of control.

Turning to `O=c1[nH]c(CN2CCCCC2)ccc1O`, the T/C (dose: 25.0 mg/kg/injection, schedule: Q01DX009 (ip), vehicle: saline) was 105 % of control and 109 % of control; the T/C under setting [7] is 99 % of control and 105 % of control; the T/C under setting [8] was 106 % of control and 109 % of control; the T/C under setting [9] was 117 % of control and 118 % of control.

For the molecule `O=C(NCCCC(CCCNC(=O)c1ccccc1)(C(=O)O)C(=O)O)c1ccccc1`, the T/C under setting [6] is 106 % of control; the T/C under setting [10] is 109 % of control; the T/C (dose: 200.0 mg/kg/injection, schedule: Q01DX005 (ip), vehicle: Klucel (hydroxypropylcellulose) (HPC)) was 104 % of control.

`O=c1[nH][nH]c(=O)c2[nH]cnc12`: the T/C was 98 % of control (dose: 50.0 mg/kg/injection, schedule: Q04DX003 (ip), vehicle: saline with Tween-80); 100 % of control (dose: 100.0 mg/kg/injection, schedule: Q04DX003 (ip), vehicle: saline with Tween-80); 100 % of control (dose: 200.0 mg/kg/injection, schedule: Q04DX003 (ip), vehicle: saline with Tween-80); 106 % of control (dose: 400.0 mg/kg/injection, schedule: Q04DX003 (ip), vehicle: saline with Tween-80).

`CCN(CC)CCOc1cccc2c1C(=O)c1ccccc1C2=O`: the T/C under setting [7] was 105 % of control and 98 % of control; the T/C under setting [8] is 106 % of control.

As to `NC(Cc1c(Br)[nH]c2ccccc12)C(=O)O` (stereo not drawn), the T/C reads like this: under setting [11], 98 % of control; under setting [12], 103 % of control; under setting [13], 104 % of control.

Take `C[S+](C)CCO`: the T/C is, setting by setting: under setting [7], 100 % of control; under setting [8], 102 % of control; under setting [9], 98 % of control; (dose: 400.0 mg/kg/injection, schedule: Q01DX009 (ip), vehicle: saline) 95 % of control.

As for `CC(C(=O)NN)C(C)(C)C` (stereo not drawn), the T/C (dose: 100.0 mg/kg/injection, schedule: Q01DX001 (ip), vehicle: saline with Tween-80) was 96 % of control; the T/C (dose: 200.0 mg/kg/injection, schedule: Q01DX001 (ip), vehicle: saline with Tween-80) was 99 % of control; the T/C (dose: 400.0 mg/kg/injection, schedule: Q01DX001 (ip), vehicle: saline with Tween-80) was 99 % of control.

Take `COC(=O)C1CC2CC(O)CN(CCc3c1[nH]c1ccccc31)C2` (stereo not drawn): the T/C is, setting by setting: (dose: 3.63 mg/kg/injection, schedule: Q01DX005 (ip), vehicle: Klucel (hydroxypropylcellulose) (HPC)) 104 % of control; (dose: 7.25 mg/kg/injection, schedule: Q01DX005 (ip), vehicle: Klucel (hydroxypropylcellulose) (HPC)) 100 % of control; (dose: 14.5 mg/kg/injection, schedule: Q01DX005 (ip), vehicle: Klucel (hydroxypropylcellulose) (HPC)) 104 % of control; (dose: 29.0 mg/kg/injection, schedule: Q01DX005 (ip), vehicle: Klucel (hydroxypropylcellulose) (HPC)) 89 % of control.

On to `CCOC1=Cc2c(oc3c(C(C)(C)C)cc(OCC)cc23)OC(C(C)(C)C)=C1`, for which the T/C (dose: 3.12 mg/kg/injection, schedule: Q01DX009 (ip), vehicle: saline with Tween-80) is 103 % of control; the T/C under setting [2] is 92 % of control; the T/C under setting [3] is 100 % of control; the T/C under setting [4] is 100 % of control.

For the molecule `CN1N=Nc2ccccc2C1(O)c1ccccc1` (stereo not drawn), the T/C was 98 % of control (dose: 100.0 mg/kg/injection, schedule: Q01DX001 (ip), vehicle: Klucel (hydroxypropylcellulose) (HPC)); 98 % of control (dose: 200.0 mg/kg/injection, schedule: Q01DX001 (ip), vehicle: Klucel (hydroxypropylcellulose) (HPC)); 102 % of control (dose: 400.0 mg/kg/injection, schedule: Q01DX001 (ip), vehicle: Klucel (hydroxypropylcellulose) (HPC)).

Regarding `N#CC(C#N)=C(O)/C(=C/c1ccc(Cl)c(Cl)c1)NC(=O)c1ccccc1`, the T/C is 88 % of control under setting [1]; 88 % of control (dose: 100.0 mg/kg/injection, schedule: Q01DX005 (ip), vehicle: saline); 104 % of control (dose: 200.0 mg/kg/injection, schedule: Q01DX005 (ip), vehicle: saline).

On to `CCC(=O)C12CCCC1=NC(=N)N=C2C1=NC(=N)N=C2CCCC21C(=O)CC` (stereo not drawn), for which the T/C by setting is: (dose: 60.0 mg/kg/injection, schedule: Q01DX005 (ip), vehicle: saline) 102 % of control; (dose: 120.0 mg/kg/injection, schedule: Q01DX005 (ip), vehicle: saline) 108 % of control; (dose: 240.0 mg/kg/injection, schedule: Q01DX005 (ip), vehicle: saline) 88 % of control.

As for `c1ccc2c(c1)[nH]c1c2nc2ccccn21`, the T/C under setting [5] was 105 % of control and 107 % of control; the T/C under setting [6] is 105 % of control and 108 % of control and 113 % of control; the T/C under setting [10] was 124 % of control.

In the case of `COc1c2occc2c(N=Cc2c[nH]c3ccccc23)c2ccc(=O)oc12`, the T/C was 92 % of control under setting [11], 93 % of control under setting [12] and 86 % of control under setting [13].

Regarding `O=C(Nc1nncs1)c1cccs1`, the T/C runs as follows: (dose: 50.0 mg/kg/injection, schedule: Q04DX002 (ip), vehicle: saline with Tween-80) 100 % of control; (dose: 50.0 mg/kg/injection, schedule: Q04DX002 (ip), vehicle: saline) 113 % of control; under setting [12], 103 % of control; (dose: 100.0 mg/kg/injection, schedule: Q04DX002 (ip), vehicle: saline with Tween-80) 104 % of control and 114 % of control; (dose: 100.0 mg/kg/injection, schedule: Q04DX002 (ip), vehicle: saline) 106 % of control; under setting [13], 101 % of control. The T/C reads like this: (dose: 200.0 mg/kg/injection, schedule: Q04DX002 (ip), vehicle: saline with Tween-80) 114 % of control; (dose: 200.0 mg/kg/injection, schedule: Q04DX002 (ip), vehicle: saline) 122 % of control; (dose: 400.0 mg/kg/injection, schedule: Q01DX005 (ip), vehicle: saline with Tween-80) 96 % of control; (dose: 600.0 mg/kg/injection, schedule: Q04DX002 (ip), vehicle: saline with Tween-80) 160 % of control; (dose: 800.0 mg/kg/injection, schedule: Q01DX005 (ip), vehicle: saline with Tween-80) 104 % of control.
